# Test results as given in patent US20170073337A1, “DIHYDROTHIAZINE AND DIHYDROOXAZINE DERIVATIVES HAVING BACE1 INHIBITORY ACTIVITY” (Shionogi & Co., Ltd., priority 2014, published 2017).
# Where two headings read alike, the source gives them in different places.
# Legend:
# Solubility test = assay type: physicochemical; settings: kinetic from dmso stock; for solubility kinetic at 16 h: 25 °C
# Method in brief: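 Dissolved concentration determined by LC/MS or SPE/MS (absolute calibration) in diluted filtrates, after 2 μL of 10 mmol/L DMSO stock was added to 198 μL JP 1st or JP 2nd fluid and equilibrated either 1 h with shaking at room temperature or 16 h standing at 25 °C.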
# [1] = target: T1, human ether-a-go-go related gene (hERG) channel (Homo sapiens, UniProt Q12809); experiment: hERG test; assay type: cell-based; settings: % inhibition of IKr tail peak current at 3 uM; CHO cells expressing hERG
# T1 construct: expressed in transfected cells; host or cells: CHO cells
# Method in brief: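 IKr was recorded from hERG-expressing CHO cells by automated whole-cell patch clamp at a holding potential of −80 mV. A −50 mV leak step was followed by a 2 s depolarization to +20 mV and a 2 s repolarization to −50 mV, when current was measured.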
# CYP1A2 = target: T2, CYP1A2 (Homo sapiens, UniProt P05177); experiment: CYP inhibition test (CYP1A2); assay type: in vitro ADME; settings: pooled human liver microsomes; 7-ethoxyresorufin O-deethylation
# T2 construct: The commercially available pooled human liver microsomes are used as an enzyme resource; from tissue; host or cells: pooled human liver microsomes
# T2 sequence (P05177 1-516): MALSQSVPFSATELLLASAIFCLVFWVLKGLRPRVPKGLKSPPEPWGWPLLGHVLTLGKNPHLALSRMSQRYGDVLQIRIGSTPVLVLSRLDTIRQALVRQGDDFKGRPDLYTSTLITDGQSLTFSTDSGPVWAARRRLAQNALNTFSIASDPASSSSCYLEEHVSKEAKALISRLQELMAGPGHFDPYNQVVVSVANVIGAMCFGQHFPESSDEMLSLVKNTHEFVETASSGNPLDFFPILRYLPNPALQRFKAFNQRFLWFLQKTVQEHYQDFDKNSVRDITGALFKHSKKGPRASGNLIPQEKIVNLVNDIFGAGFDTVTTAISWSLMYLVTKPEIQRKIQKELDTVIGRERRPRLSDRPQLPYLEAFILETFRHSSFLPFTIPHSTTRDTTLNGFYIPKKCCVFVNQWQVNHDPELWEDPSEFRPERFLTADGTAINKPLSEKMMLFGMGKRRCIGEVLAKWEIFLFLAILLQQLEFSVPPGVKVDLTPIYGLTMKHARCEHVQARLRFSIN
# Method in brief: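 Inhibition of CYP1A2 was measured in commercially available pooled human liver microsomes (0.2 mg protein/mL) using 7-ethoxyresorufin O-deethylation with 0.5 μmol/L ethoxyresorufin. Test compound at 1, 5, 10, 20 μmol/L in […] Hepes buffer was incubated at 37° C. after NADPH addition; methanol/acetonitrile=1/1 (v/v) stopped the reaction, and resorufin was read fluorescently.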
# CYP3A4 = target: T3, CYP3A4 (Homo sapiens, UniProt P08684); experiment: CYP inhibition test (CYP3A4); assay type: in vitro ADME; settings: pooled human liver microsomes; terfenadine hydroxylation
# T3 construct: The commercially available pooled human liver microsomes are used as an enzyme resource; from tissue; host or cells: pooled human liver microsomes
# Method in brief: (§1)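 Metabolite formation was quantified by LC/MS/MS: dextrorphan (2D6, 5 μmol/L dextromethorphan), terfenadine alcohol (3A4, 1 μmol/L terfenadine), 4′-hydroxymephenytoin (2C19, 50 μmol/L S-mephenytoin) and hydroxytolbutamide (2C9, 100 μmol/L tolbutamide). Reactions used NADPH-started pooled human liver microsomes (0.2 mg/mL) at 37 °C with compound at 1–20 μmol/L (four points). IC50 was calculated by logistic model relative to the DMSO control.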
# CYP2C19 = target: T4, CYP2C19 (Homo sapiens, UniProt P33261); experiment: CYP inhibition test (CYP2C19); assay type: in vitro ADME; settings: pooled human liver microsomes; mephenytoin 4′-hydroxylation
# T4 construct: The commercially available pooled human liver microsomes are used as an enzyme resource; from tissue; host or cells: pooled human liver microsomes
# Method in brief: as §1
# Metabolic stability test = assay type: in vitro ADME; settings: human liver microsomes, 37° C., 30 minutes, NADPH
# Method in brief: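 Parent compound was measured by LC/MS/MS or SPE/MS after a methanol/acetonitrile quench and reported as % remaining, with the 0 min sample set to 100%. Incubations ran 30 min at 37 °C in pH 7.4 Tris buffer containing pooled human liver microsomes at 0.5 mg protein/mL and 1 mmol/L NADPH.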
# [2] = JP 1st fluid, pH 1.2, simulated gastric fluid, read-out: JP1
# T3 sequence (P08684 whole entry): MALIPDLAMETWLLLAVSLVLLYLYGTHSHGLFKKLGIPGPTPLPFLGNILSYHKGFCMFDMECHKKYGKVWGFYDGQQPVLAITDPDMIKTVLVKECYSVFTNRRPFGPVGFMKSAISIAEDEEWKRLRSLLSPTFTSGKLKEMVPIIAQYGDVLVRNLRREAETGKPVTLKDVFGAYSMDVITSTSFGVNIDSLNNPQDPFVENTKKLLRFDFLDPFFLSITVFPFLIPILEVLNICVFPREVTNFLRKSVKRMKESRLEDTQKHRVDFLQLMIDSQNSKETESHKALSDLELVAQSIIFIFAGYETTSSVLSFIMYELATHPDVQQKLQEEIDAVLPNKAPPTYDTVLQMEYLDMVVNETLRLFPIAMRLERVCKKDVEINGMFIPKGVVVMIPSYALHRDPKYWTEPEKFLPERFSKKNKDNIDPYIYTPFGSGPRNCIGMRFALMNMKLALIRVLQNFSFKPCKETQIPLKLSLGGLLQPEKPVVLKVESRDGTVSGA
# T1 sequence (Q12809 whole entry): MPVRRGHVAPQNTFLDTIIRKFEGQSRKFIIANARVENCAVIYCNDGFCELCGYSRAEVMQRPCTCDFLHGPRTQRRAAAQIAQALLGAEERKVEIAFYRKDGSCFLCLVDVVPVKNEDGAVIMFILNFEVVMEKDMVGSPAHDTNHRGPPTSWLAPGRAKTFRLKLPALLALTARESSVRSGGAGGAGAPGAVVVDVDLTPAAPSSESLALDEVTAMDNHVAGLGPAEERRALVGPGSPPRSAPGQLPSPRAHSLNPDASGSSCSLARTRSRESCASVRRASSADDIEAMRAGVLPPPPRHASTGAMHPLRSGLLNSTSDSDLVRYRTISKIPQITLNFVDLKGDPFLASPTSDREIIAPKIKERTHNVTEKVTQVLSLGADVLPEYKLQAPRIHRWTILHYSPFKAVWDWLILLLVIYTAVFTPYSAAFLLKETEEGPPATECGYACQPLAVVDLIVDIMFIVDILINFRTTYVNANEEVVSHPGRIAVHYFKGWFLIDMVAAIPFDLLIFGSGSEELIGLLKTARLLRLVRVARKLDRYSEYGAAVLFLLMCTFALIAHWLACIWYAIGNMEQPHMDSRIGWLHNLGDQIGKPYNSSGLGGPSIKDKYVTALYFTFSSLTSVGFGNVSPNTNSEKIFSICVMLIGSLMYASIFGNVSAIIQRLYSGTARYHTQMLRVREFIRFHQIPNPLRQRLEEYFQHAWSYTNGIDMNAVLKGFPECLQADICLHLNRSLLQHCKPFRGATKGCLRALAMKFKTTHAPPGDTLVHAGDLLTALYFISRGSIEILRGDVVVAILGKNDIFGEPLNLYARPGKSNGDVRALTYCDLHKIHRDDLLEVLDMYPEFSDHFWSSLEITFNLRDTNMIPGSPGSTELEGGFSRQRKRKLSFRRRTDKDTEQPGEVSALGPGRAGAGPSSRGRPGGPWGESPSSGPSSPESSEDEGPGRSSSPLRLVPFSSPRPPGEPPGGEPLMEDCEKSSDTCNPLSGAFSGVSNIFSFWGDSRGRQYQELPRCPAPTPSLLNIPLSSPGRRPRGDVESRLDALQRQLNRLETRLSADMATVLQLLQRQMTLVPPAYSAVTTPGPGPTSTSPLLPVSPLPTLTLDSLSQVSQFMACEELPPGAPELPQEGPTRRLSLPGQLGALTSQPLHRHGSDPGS
# T4 sequence (P33261 whole entry): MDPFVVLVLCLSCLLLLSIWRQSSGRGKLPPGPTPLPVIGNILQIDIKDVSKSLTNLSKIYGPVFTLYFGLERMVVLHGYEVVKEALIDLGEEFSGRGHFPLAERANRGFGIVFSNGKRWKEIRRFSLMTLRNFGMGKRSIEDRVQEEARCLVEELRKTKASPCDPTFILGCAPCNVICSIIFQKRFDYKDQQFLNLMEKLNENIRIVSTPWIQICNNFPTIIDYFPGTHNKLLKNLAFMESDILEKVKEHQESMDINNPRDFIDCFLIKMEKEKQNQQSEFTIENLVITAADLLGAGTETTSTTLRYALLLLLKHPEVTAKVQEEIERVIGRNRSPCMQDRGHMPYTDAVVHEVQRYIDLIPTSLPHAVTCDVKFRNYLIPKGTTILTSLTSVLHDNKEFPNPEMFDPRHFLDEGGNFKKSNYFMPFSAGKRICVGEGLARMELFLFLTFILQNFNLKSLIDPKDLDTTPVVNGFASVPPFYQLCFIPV
solubility kinetic at 1 h (Solubility test; [2]),"solubility kinetic at 1 h (Solubility test; JP 2nd fluid B, pH 6.8, aqueous buffer, read-out: JP2_μM)",IC50 (CYP1A2),IC50 (CYP3A4),IC50 (CYP2C19),remaining % (Metabolic stability test),solubility kinetic at 16 h (Solubility test; [2]),"solubility kinetic at 16 h (Solubility test; JP 2nd fluid A, pH 6.8, aqueous buffer, read-out: JP2_μM)",SMILES,hERG_3 uM_% [1]
> 50 µM,19 µM,≥ 20 µM,≥ 20 µM,≥ 20 µM,86.8%,–,–,C[C@]1(c2cc(NC(=O)c3cnc(OCF)cn3)ccc2F)N=C(N)S[C@H](CO)[C@@H]1F [Compound I-109],11%
–,–,≥ 20 µM,≥ 20 µM,≥ 20 µM,106%,> 50 µM,> 50 µM,C[C@H]1SC(N)=N[C@](C)(c2cc(NC(=O)c3ccc(F)cn3)ccc2F)[C@H]1F [Compound I-116],45.5%
